We go through eleven molecules from ChEMBL document CHEMBL1201862, “PubChem BioAssay data set” (2004).

Test systems include 786-0; A498; BT-549; CAKI-1; COLO 205; HCT-15; HOP-62; HOP-92; Hs-578T; IGROV-1; K562; M14; MCF7; MDA-N; NCI-H226; OVCAR-8; RXF 393; SK-OV-3; SW-620; TK-10.
Common to all, as to test: NCI tumour cell line growth inhibition, 48 h

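Method: 48-hour compound exposure of cells in 96-well plates, five concentrations, linear interpolation of endpoints. GI50 is the concentration that inhibits growth by half.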 The source made the active and inactive calls. Rule as the data show it: active = GI50 up to about 1.1 µM and inactive = higher. A value given as a limit tells only on which side of the number the result lay.

Turning to `C1=CC2C=CC(C=C1)P2c1ccccc1` (stereo not given), the GI50 in the experiment on 786-0 was > 100 µM (inactive); in the experiment on A498 it was > 100 µM (inactive); in the experiment on BT-549, > 100 µM (inactive); in the experiment on CAKI-1 it was > 100 µM (inactive); with COLO 205, > 100 µM (inactive); in the experiment with HCT-15 it was over 100 µM. The GI50 in the experiment on HOP-62, in the experiment with HOP-92, in the experiment with Hs-578T, in the experiment on IGROV-1, with K562 and with M14 was > 100 µM (inactive) throughout. Besides, the GI50 with MCF7, in the experiment on MDA-N, with NCI-H226, with OVCAR-8, in the experiment with RXF 393 and in the experiment on SK-OV-3 was > 100 µM (inactive) each time. The GI50 in the experiment with SW-620 and in the experiment with TK-10 was > 100 µM (inactive) in each case.

With `CC1(C)OC[C@@H](/C=C\CCO[Si](c2ccccc2)(c2ccccc2)C(C)(C)C)N1C(=O)c1ccccc1`, the GI50 with 786-0 was 11.6 µM (inactive); in the experiment with A498 it was 13.9 µM (inactive); in the experiment with BT-549 it was 18.5 µM (inactive); in the experiment on CAKI-1 it was 9.4 µM (inactive); in the experiment with COLO 205, 8.32 µM (inactive); with HCT-15, 5.13 µM. In addition, the GI50 in the experiment on HOP-62 was 25.4 µM (inactive); in the experiment with HOP-92, 14.4 µM (inactive); with Hs-578T, 12.5 µM (inactive); with IGROV-1, 28.6 µM (inactive); in the experiment on K562 it was 3.1 µM (inactive); in the experiment with M14, 7.08 µM (inactive). Besides, the GI50 with MCF7 is 6.32 µM (inactive); with MDA-N, 15.8 µM (inactive); with NCI-H226, 7.94 µM (inactive); in the experiment on OVCAR-8, 15.8 µM (inactive); with RXF 393 it was 6.84 µM (inactive); with SK-OV-3, 48.2 µM (inactive). Further, the GI50 in the experiment with SW-620 was 14.5 µM (inactive); in the experiment on TK-10, 11.2 µM (inactive).

For the molecule `C=C1CC/C=C(/C(=O)O)CC[C@H]2[C@@H]1CC2(C)C`, the GI50 was > 100 µM (inactive) in the experiment on 786-0; > 100 µM (inactive) in the experiment with A498; > 100 µM (inactive) in the experiment with BT-549; > 100 µM (inactive) in the experiment on CAKI-1; > 100 µM (inactive) in the experiment with COLO 205; over 100 µM with HCT-15. Further, the GI50 in the experiment on HOP-62 was > 100 µM (inactive); with HOP-92, 70 µM (inactive); with Hs-578T, > 100 µM (inactive); with IGROV-1, > 100 µM (inactive); in the experiment on K562, > 100 µM (inactive); in the experiment on M14 it was > 100 µM (inactive). The GI50 with MCF7, in the experiment with MDA-N, in the experiment on NCI-H226, with RXF 393, in the experiment on SK-OV-3 and in the experiment on SW-620 was > 100 µM (inactive) each time. Moreover, the GI50 in the experiment with TK-10 is > 100 µM (inactive).

Consider `O=C(C/N=C(\CN(c1ccccc1)c1ccccc1)Oc1c(Cl)cc(Cl)cc1Cl)n1cnc2ccccc21`, for which the GI50 is > 100 µM (inactive) in the experiment with 786-0; 22.6 µM (inactive) with BT-549; > 100 µM (inactive) with COLO 205; 43.8 µM in the experiment with HCT-15; > 100 µM (inactive) in the experiment with HOP-62; 59.6 µM (inactive) in the experiment on HOP-92. For the same molecule, the GI50 in the experiment with Hs-578T is > 100 µM (inactive); with IGROV-1 it was 39.6 µM (inactive); with K562, 80.7 µM (inactive); in the experiment with M14 it was > 100 µM (inactive); with MCF7, 71 µM (inactive); with MDA-N, 59.8 µM (inactive). In addition, the GI50 in the experiment with NCI-H226 is 19.5 µM (inactive); in the experiment with OVCAR-8 it was 35.3 µM (inactive); in the experiment on RXF 393 it was < 0.01 µM (active); with SK-OV-3, > 100 µM (inactive); in the experiment on SW-620, 81.7 µM (inactive); with TK-10 it was > 100 µM (inactive).

`Nc1nc(=O)n(C2OC(CO)C(O)C2O)c2ncc(-c3ccc(-c4ccccc4)cc3)nc12` (stereo not given): the GI50 in the experiment with 786-0 is 28.4 µM (inactive); in the experiment on A498, > 100 µM (inactive); in the experiment with BT-549, > 100 µM (inactive); in the experiment with CAKI-1, > 100 µM (inactive); in the experiment on COLO 205 it was > 100 µM (inactive); in the experiment on HCT-15, over 100 µM. Besides, the GI50 is 60 µM (inactive) in the experiment with HOP-62; > 100 µM (inactive) in the experiment on HOP-92; > 100 µM (inactive) in the experiment with Hs-578T; > 100 µM (inactive) with IGROV-1; > 100 µM (inactive) with K562; 31.3 µM (inactive) in the experiment on MCF7. Further, the GI50 in the experiment with MDA-N was > 100 µM (inactive); in the experiment with NCI-H226, 24.1 µM (inactive); in the experiment on OVCAR-8, > 100 µM (inactive); in the experiment with RXF 393, > 100 µM (inactive); in the experiment on SK-OV-3, > 100 µM (inactive); in the experiment on SW-620 it was > 100 µM (inactive). Besides, in the experiment on TK-10, the GI50 is > 100 µM (inactive).

For the molecule `Clc1ccc(C(Cc2cccc(Cl)c2)c2c(Cl)nc(N3CCNCC3)nc2Cl)cc1` (stereo not given), the GI50 in the experiment on 786-0 is 14.4 µM (inactive); in the experiment with A498, 15.2 µM (inactive); with BT-549, 20.6 µM (inactive); in the experiment on CAKI-1, 12.1 µM (inactive); in the experiment with COLO 205, 2.9 µM (inactive); with HCT-15, 13.6 µM. In addition, the GI50 was 15.4 µM (inactive) in the experiment on HOP-62; 13.9 µM (inactive) with HOP-92; 19.8 µM (inactive) with Hs-578T; 69.2 µM (inactive) with IGROV-1; 12.6 µM (inactive) in the experiment on K562; 13.4 µM (inactive) with M14. The GI50 in the experiment on MCF7 was 10.8 µM (inactive); in the experiment on MDA-N it was 16.1 µM (inactive); with NCI-H226, 3.12 µM (inactive); in the experiment on OVCAR-8, 19.1 µM (inactive); in the experiment on SK-OV-3, 13.7 µM (inactive); with SW-620, 16.5 µM (inactive). Also, in the experiment on TK-10, the GI50 is 16.4 µM (inactive).

On to `CC(=O)Oc1ccn2nc(C)c(Br)c2c1Br`, for which the GI50 in the experiment with 786-0 was 36.5 µM (inactive); with A498, 25.1 µM (inactive); in the experiment with BT-549 it was 26 µM (inactive); in the experiment on CAKI-1, 2.88 µM (inactive); in the experiment with COLO 205, 19.4 µM (inactive); in the experiment on HCT-15 it was 16.9 µM. The GI50 was 44.4 µM (inactive) in the experiment with HOP-62; 19.4 µM (inactive) in the experiment with HOP-92; 29.6 µM (inactive) in the experiment on Hs-578T; 32.5 µM (inactive) with IGROV-1; 24.5 µM (inactive) in the experiment with K562; 18.9 µM (inactive) in the experiment with M14. In addition, the GI50 was 17.8 µM (inactive) with MCF7; 17.6 µM (inactive) with MDA-N; > 43.9 µM (inactive) in the experiment on NCI-H226; 29.4 µM (inactive) with OVCAR-8; > 10 µM (inactive) with RXF 393; 30.5 µM (inactive) in the experiment on SW-620. Further, the GI50 in the experiment on TK-10 is 45 µM (inactive).

Turning to `Cn1c(=O)[nH]n(-c2ccc3ccccc3c2)c1=O`, the GI50 is > 100 µM (inactive) in the experiment on 786-0; > 100 µM (inactive) with A498; > 100 µM (inactive) with BT-549; > 100 µM (inactive) in the experiment with CAKI-1; > 100 µM (inactive) in the experiment with COLO 205; over 100 µM with HCT-15. For the same molecule, the GI50 in the experiment with HOP-92, in the experiment with Hs-578T, in the experiment on IGROV-1, in the experiment with K562, in the experiment with M14 and with MCF7 was > 100 µM (inactive) throughout. Besides, the GI50 with MDA-N, in the experiment on NCI-H226, in the experiment on OVCAR-8, in the experiment on RXF 393, in the experiment on SK-OV-3 and in the experiment on SW-620 was > 100 µM (inactive) throughout. The GI50 with TK-10 was > 100 µM (inactive).

Turning to `Cc1nc(Nc2ccccc2Cl)sc1C(=O)CC(=O)C(=O)Nc1c(Cl)cccc1Cl`, the GI50 in the experiment with 786-0 was 24.3 µM (inactive); in the experiment with BT-549, 24.2 µM (inactive); in the experiment on CAKI-1 it was 84.1 µM (inactive); in the experiment with COLO 205 it was 18.6 µM (inactive); in the experiment on HCT-15, 33.3 µM; in the experiment with HOP-62, 22.8 µM (inactive). Besides, the GI50 in the experiment with HOP-92 is 20.6 µM (inactive); with Hs-578T it was 25.2 µM (inactive); with IGROV-1 it was 15.8 µM (inactive); in the experiment on K562, 41.8 µM (inactive); with M14, 29.9 µM (inactive); with MCF7, 28.2 µM (inactive). Besides, the GI50 in the experiment on MDA-N was 40 µM (inactive); with NCI-H226, 17.5 µM (inactive); in the experiment on OVCAR-8, 29.4 µM (inactive); in the experiment on RXF 393, 23.4 µM (inactive); in the experiment on SK-OV-3 it was 29.1 µM (inactive); in the experiment on SW-620, 26.5 µM (inactive). Further, in the experiment on TK-10, the GI50 was > 100 µM (inactive).

In the case of `O=C(c1ccco1)N(Cc1ccco1)C(=S)Nc1ccccc1`, the GI50 is 6.3 µM (inactive) in the experiment on 786-0; 17.2 µM (inactive) with BT-549; 7.08 µM (inactive) in the experiment with CAKI-1; 12.9 µM (inactive) in the experiment on COLO 205; 9.2 µM with HCT-15; 36.6 µM (inactive) with HOP-62. The GI50 with HOP-92 is 7.53 µM (inactive); in the experiment with Hs-578T, 19.3 µM (inactive); with IGROV-1, 16.1 µM (inactive); in the experiment on K562 it was 3.33 µM (inactive); in the experiment on M14 it was 12 µM (inactive); in the experiment on MCF7, 4.2 µM (inactive). For the same molecule, the GI50 with MDA-N is 10.5 µM (inactive); in the experiment on NCI-H226, 66.8 µM (inactive); in the experiment on OVCAR-8, 19 µM (inactive); in the experiment with RXF 393 it was 16 µM (inactive); in the experiment on SK-OV-3 it was > 100 µM (inactive); with SW-620, 12.4 µM (inactive). Moreover, in the experiment on TK-10, the GI50 is 18.8 µM (inactive).

For `CC1=CC(=O)N(n2c(Cc3ccc(Cl)cc3)n[nH]c2=O)C1=O`, the GI50 in the experiment on 786-0 is 60.5 µM (inactive); in the experiment with A498 it was 71.8 µM (inactive); in the experiment with BT-549, 35.3 µM (inactive); in the experiment on CAKI-1, 88.3 µM (inactive); in the experiment on COLO 205, 71.3 µM (inactive); with HCT-15, 44.9 µM. For the same molecule, the GI50 is 21.1 µM (inactive) in the experiment on HOP-92; 35.4 µM (inactive) with Hs-578T; 83.4 µM (inactive) in the experiment on IGROV-1; 23.3 µM (inactive) in the experiment on K562; 47.9 µM (inactive) with M14; 30.5 µM (inactive) with MCF7. Further, the GI50 in the experiment on MDA-N is 44.7 µM (inactive); in the experiment on NCI-H226 it was > 100 µM (inactive); in the experiment on OVCAR-8, 55.5 µM (inactive); with RXF 393 it was 8.24 µM (inactive); in the experiment with SK-OV-3 it was > 100 µM (inactive); with SW-620, 32.5 µM (inactive). In addition, the GI50 with TK-10 is 98.9 µM (inactive).
